Results on 3 compounds are retold here after patent EP0214101A2, “Use of iron(III) chelators of the type desferrioxamine-B and desferriferrithiocine in the treatment of malaria” (CIBA-GEIGY AG, priority 1985, dated 1987).

Molecules are shown by their SMILES. Like-named read-outs stand apart in the source and are kept apart here.

In series [1] the test system is Plasmodium falciparum T96 Chloroquinresistente Zellinie B. Briefly: microbe, parasite or virus in culture. The settings on record: for IC50: Plasmodium falciparum, Erythrocyte, over 2 cycles. In kind it is cell-based. An excerpt: (§1) • a) Durch konventionelles Züchten des Stammes Plasmodium falciparum T96 in einer 2 % (V/V) Suspension von humanen Erythrozyten wird der Grundorganismus-Zellinie A fortgepflanzt, welche eine normale Empfindlichkeit gegenüber Chloroquin aufweist. • b) Zellinie A des obigen Stammes wird unter analogen Standardbedingungen wie unter a) gezüchtet, jedoch mit Zusatz von immer ansteigenden Konzentrationen von Chloroquin, bis eine Chloroquinresistente Zellinie B resultiert, welche weiterhin in Kulturmedien mit einer 500 nM-Konzentration von Chloroquin andauernd normales Wachstum (dieselbe Wachstumsraten wie Zellinie A) aufweist.
(§2) • I. Die Züchtung von Testorganismen erfolgt unter den für Züchtung von Plasmodien üblichen Bedingungen auf einer 2 % Suspension von humanen Erythrozyten, supplementiert mit 50 mg/1 Hypoxanthin und gegebenenfalls unter Zugabe der getesteten Hemmsubstanz in gewünschter Konzentration. Die initiale Parasitämie (= der prozentuelle Anteil der zu Beginn von Plasmodien infizierten Erythrozyten) beträgt 1-2 %. Das Resultat (Hemmwirkung) wird als IC50 ausgewertet, d.h. jene Konzentration des Wirkstoffes, die eine Senkung der finalen Parasitämie um 50 %, d.h. eine 50%ige Hemmung des Wachstums, verursacht. • II. In einer alternativen Versuchsanordnung wird beim Einhalten aller übrigen Bedingungen ohne Zugabe von Hypoxanthin und mit einer initialen Parasitämie von 0,5 % gearbeitet.

The next series relates to Bakterien. To be noted: cited from earlier work.
For series [2] the following is noted: very high doses; cited from earlier work.
For series [3], the system named is Plasmodium falciparum T96 Zellinie A. Briefly: Growth inhibition of Plasmodium falciparum T96 cell line A (normal chloroquine sensitivity) in culture on human erythrocytes. The settings on record: Erythrocyte, over 2 cycles. In kind it is cell-based.
Source text: as §1
as §2, with “In einer alternativen Versuchsanordnung wird beim Einhalten aller übrigen Bedingungen ohne Zugabe von Hypoxanthin und mit einer initialen Parasitämie von 0,5 % gearbeitet.” left out

Series [4] deals with Plasmodium falciparum in Kultur an menschlichen Erythrozyten. To be noted: in vitro culture; cited from earlier work.
For another series, the system named is P. vinckei. The settings on record: cited from earlier work.

Turning to `CCN(CC)CCCC(C)Nc1ccnc2cc(Cl)ccc12` (stereo not drawn) [Chloroquin, 7-Chlor-4-(4-diethylamino-l-methylbutylamino)chinolin], in series [1] (Versuchsanordnung I with 500 nM Chloroquin, within 48 hours), the Vermehrungsfaktor is listed as 7-9.

As to `CC1(C(=O)O)CSC(c2ncccc2O)=N1` (stereo not shown) [Desferri-ferrithiocin, 2-(3-Hydroxy-2-pyridyl)-4-methyl-2-thiazolin-4-carbonsäure], the “antibakterielle Wirksamkeit in vitro” value with Bakterien is “gewisse allgemeine antibakterielle Wirksamkeit in vitro”.

A word on the IC50: it is the concentration needed to halve the response being measured. Low values mean greater potency in that assay, high ones weaker potency in that assay. For `CC(=O)N(O)CCCCCNC(=O)CCC(=O)N(O)CCCCCNC(=O)CCC(=O)N(O)CCCCCN` [Desferrioxamin B, 6,17,28-Trihydroxy-7,10,18,21,29-pentaoxo-6,11,17,22,28-pentaaza-triacontanylamin], the IC50 is 3 ± 1 µM in series [1] (Versuchsanordnung I, with 400 nM Chloroquin added); 6 ± 1.5 µM in series [1] (Versuchsanordnung I, without Chloroquin in test medium); 2 ± 1 µM in series [1] (Versuchsanordnung II, without Chloroquin in test medium); 17 ± 3 µM in series [3] (Versuchsanordnung I); 5 µM in series [3] (Versuchsanordnung II). Moreover, the “Wirksamkeit gegen Chloroquin-resistenten Stamm im Vergleich zu normal empfindlichem Stamm” value in series [1] (comparison of resistant with sensitive strain grown under the same conditions) is listed as “um fast eine Grössenordnung wirksamer”. In addition, in series [2], the Toxikologie result was “auch in sehr hohen Dosen toxikologisch einwandfrei”. In addition, the “Wachstum / Abtötung in vitro” value in series [4] is “nicht nur in ihrem Wachstum gehemmt, sondern auch getötet”. Further, the “Wachstum des Parasiten” value in the series with P. vinckei (0,2 g/kg) was “das Wachstum des Parasiten deutlich hemmt”; with P. vinckei (1,0 g/kg) it was “ihn vollständig tötet”. Moreover, the “antibakterielle Wirksamkeit in vitro” value in the series on Bakterien is recorded as “gewisse allgemeine antibakterielle Wirksamkeit in vitro”.
